According to patent publication US20250009697A1, “COMPOSITION FOR INCREASING AMOUNT OF FOOD INGESTED AND/OR IMPROVING ANOREXIA, AND COMPOSITION FOR ACTIVATING TRANSIENT RECEPTOR POTENTIAL ANKYRIN 1” (HOUSE FOODS GROUP INC., priority 2021, published 2025):

Key:
Type in all cases: cell-based
Mock cell = assay: TRPA1 Activation Test 2: intracellular Ca2+ imaging assay 2-2, Mock cell; conditions: Table 9
Method: (§1) A hTRPA1 stably expressing cell line in which expression of hTRPA1 had been induced in advance by a conventional method was prepared in a 96 well clear bottom plate, and the hTRPA1 activating action of rhein (produced by Tokyo Chemical Industry Co., Ltd.) was tested. Specifically, after each well was washed with PBS, 50 μL of an assay buffer (Hanks' balanced salt solution containing no calcium ion or magnesium ion that contained 1 mM of CaCl2 dihydrate, 20 mM of HEPES, and 0.1% BSA) containing calcium fluorescent indicator Calbryte™ 520 AM (produced by AAT Bioquest) in a final concentration of 4 μM was added, followed by incubating at 33° C. for 45 minutes. After washing with the assay buffer, 100 μL of the assay buffer was added to each well. This plate was set to FlexStation 3 (Molecular Devices, LLC), and a fluorescence intensity (excitation wavelength 490 nm, fluorescence wavelength 525 nm) at 31° C. was measured every two seconds, and 30 seconds after the start of the measurement, 100 μL of an assay buffer containing a test sample (allyl isothiocyanate (AITC) of positive control or rhein) which was prepared to have a certain final concentration or DMSO was added. Then, a well in which an assay buffer containing ionomycin (having a final concentration of 10 μM after the addition) instead of the test samples was added was also prepared as a reference for fluorescence intensity.
(§2) The measurement was continued from the start of the measurement up to 120 seconds, and the TRPA1 activation ability of the test samples was calculated in accordance with the following formula.
Activation rate (%)=(Fmax[s]−F0)/(Fmax[i]−F0)×100 • Fmax[s]: The maximum value of the fluorescence intensity when the test sample or positive control was added • F0: The average value of the fluorescence intensity for 20 seconds after the start of the measurement (base line) • Fmax[i]: The maximum value of the fluorescence intensity when ionomycin was added […]

Human TRPV1 (hTRPV1) = biological target: T1, Human TRPV1 (hTRPV1) (Homo sapiens, UniProt Q8NER1); assay: TRPA1 Activation Test 2: intracellular Ca2+ imaging assay 2-2, hTRPV1 stably expressing cell line; conditions: for TRPV1 activation rate: Table 9
T1 construct: expressed in transfected cells
T1 sequence (Q8NER1 whole entry): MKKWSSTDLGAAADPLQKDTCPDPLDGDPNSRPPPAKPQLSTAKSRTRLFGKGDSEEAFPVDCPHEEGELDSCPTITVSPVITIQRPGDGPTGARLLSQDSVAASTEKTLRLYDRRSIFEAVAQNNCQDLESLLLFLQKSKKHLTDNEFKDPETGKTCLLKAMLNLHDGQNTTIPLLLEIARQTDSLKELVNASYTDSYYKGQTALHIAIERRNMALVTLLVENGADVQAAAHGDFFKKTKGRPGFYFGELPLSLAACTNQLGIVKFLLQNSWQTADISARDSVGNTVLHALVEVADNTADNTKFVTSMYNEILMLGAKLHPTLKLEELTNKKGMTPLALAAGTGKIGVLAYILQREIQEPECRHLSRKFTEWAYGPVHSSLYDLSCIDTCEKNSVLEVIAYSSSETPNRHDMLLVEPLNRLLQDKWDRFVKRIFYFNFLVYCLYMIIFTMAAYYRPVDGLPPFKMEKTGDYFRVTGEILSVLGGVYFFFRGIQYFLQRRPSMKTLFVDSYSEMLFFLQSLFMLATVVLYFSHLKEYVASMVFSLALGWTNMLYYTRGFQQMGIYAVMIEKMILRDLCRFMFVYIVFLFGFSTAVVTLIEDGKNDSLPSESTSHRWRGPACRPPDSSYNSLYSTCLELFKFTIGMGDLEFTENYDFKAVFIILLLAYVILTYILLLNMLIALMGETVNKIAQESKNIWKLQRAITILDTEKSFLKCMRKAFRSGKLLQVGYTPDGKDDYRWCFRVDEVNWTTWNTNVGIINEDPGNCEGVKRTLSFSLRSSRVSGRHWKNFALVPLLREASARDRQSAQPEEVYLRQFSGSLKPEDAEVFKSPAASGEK
Method: (§3) DNAs encoding genes described in the following Table 2 were inserted into pcDNA 5/TO vector (Invitrogen) to prepare various expression vectors.
(§4) These expression vectors were transfected into T-REx™_293 cells (Invitrogen) by a conventional method using Lipofectamine LTX (Invitrogen). Then, various transfectants were cultured and cloned by a conventional method using Dulbecco's Modified Eagle Medium (DMEM, Nacalai Tesque Inc.), containing 10% fetal bovine serum (FBS, Cytiva), […] of hygromycin B, and 5 μg/mL of blasticidin S, as a drug selection medium to obtain a hTRPA1 stably expressing cell line, a hTRPV1 stably expressing cell line, and a hTRPM8 stably expressing cell line.
as §1, with “This plate was set to FlexStation 3 (Molecular Devices, LLC), and a fluorescence intensity (excitation wavelength 490 nm, fluorescence wavelength 525 nm) at 31° C. was measured every two seconds, and 30 seconds after the start of the measurement, 100 μL of an assay buffer containing a test sample (allyl isothiocyanate (AITC) of positive control or rhein) which was prepared to have a certain final concentration or DMSO was added.” left out
as §2
(§5) Activation rate (%)=(Fmax[s]−F0)/(Fmax[i]−F0)×100 • Fmax[s]: The maximum value of the fluorescence intensity when the test sample or positive control was added • F0: The average value of the fluorescence intensity for 20 seconds after the start of the measurement (base line) • Fmax[i]: The maximum value of the fluorescence intensity when ionomycin was added
The TRPA1 activation ability of each test sample was measured in the same manner as in the above (2) except the test was conducted with A-967079 (1 μM), which is a TRPA1-specific antagonist, or without A-967079. In addition, intracellular Ca^2+ imaging assay was conducted in the same manner as in the above (2) except that a hTRPV1 stably expressing cell line, a hTRPM8 stably expressing cell line, or a Mock cell was used instead of the hTRPA1 stably expressing cell line. […]

Human TRPA1 (hTRPA1) = biological target: T2, Human TRPA1 (hTRPA1) (Homo sapiens, UniProt O75762); assay: TRPA1 Activation Test 2: intracellular Ca2+ imaging assay 2-1 to 2-3, hTRPA1 stably expressing cell line; conditions: for TRPA1 activation rate: Table 7; for TRPA1 activation rate, With antagonist: A-967079 1 μM; for TRPA1 activation rate, With antagonist / TRPA1 activation rate, Without antagonist: Table 8
T2 construct: expressed in transfected cells
T2 sequence (O75762 whole entry): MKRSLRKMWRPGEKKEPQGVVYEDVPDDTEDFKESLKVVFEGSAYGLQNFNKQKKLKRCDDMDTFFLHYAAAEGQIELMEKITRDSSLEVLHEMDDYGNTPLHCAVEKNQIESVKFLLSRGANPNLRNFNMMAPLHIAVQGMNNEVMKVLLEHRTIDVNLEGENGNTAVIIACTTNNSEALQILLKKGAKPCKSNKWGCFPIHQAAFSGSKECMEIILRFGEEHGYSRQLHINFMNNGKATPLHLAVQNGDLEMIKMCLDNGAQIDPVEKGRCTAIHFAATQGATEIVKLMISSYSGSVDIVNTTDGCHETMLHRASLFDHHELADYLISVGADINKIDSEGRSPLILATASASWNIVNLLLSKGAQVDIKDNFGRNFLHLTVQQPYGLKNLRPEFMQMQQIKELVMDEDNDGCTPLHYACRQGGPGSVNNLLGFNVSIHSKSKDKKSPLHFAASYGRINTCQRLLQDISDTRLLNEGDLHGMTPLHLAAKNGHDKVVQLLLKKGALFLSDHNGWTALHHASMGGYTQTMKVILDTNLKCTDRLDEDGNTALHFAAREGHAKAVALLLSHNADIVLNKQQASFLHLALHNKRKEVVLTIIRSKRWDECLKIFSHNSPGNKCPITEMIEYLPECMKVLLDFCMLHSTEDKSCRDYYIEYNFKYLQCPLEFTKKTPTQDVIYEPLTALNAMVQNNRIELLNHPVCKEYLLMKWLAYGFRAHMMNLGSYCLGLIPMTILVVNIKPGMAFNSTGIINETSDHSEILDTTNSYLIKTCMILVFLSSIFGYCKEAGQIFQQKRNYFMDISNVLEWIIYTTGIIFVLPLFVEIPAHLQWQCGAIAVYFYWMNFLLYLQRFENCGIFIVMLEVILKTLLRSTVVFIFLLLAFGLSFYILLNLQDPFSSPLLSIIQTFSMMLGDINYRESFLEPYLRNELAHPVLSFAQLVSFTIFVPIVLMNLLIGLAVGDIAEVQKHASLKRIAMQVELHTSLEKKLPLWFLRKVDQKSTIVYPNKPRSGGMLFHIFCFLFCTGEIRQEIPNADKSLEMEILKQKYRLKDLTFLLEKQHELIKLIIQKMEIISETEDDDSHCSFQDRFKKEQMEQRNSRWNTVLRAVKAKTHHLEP
Method: as §3, §4, §1, §2, §5
The TRPA1 activation ability of each test sample was measured in the same manner as in the above (2) except the test was conducted with A-967079 (1 μM), which is a TRPA1-specific antagonist, or without A-967079. In addition, intracellular Ca^2+ imaging assay was conducted in the same manner as in the above (2) except that a hTRPV1 stably expressing cell line, a hTRPM8 stably expressing cell line, or a Mock cell was used instead of the hTRPA1 stably expressing cell line. Note that capsaicin was used as positive control for the hTRPV1 stably expressing cell line, and icilin was used as positive control for the hTRPM8 stably expressing cell line.
A TRPA1 activation ability was measured in the same manner as in the above (2) by using, as a test sample, rhein or compounds described in the following Table 10, which had anthraquinone structures similar to rhein, at a concentration of 200 μM of the test sample.

TRPV1 activation (in words) (Human TRPV1 (hTRPV1); hTRPV1 stably expressing cell line): not activated
TRPV1 activation rate (Human TRPV1 (hTRPV1); test sample 100 μM): 2.40 ± 0.0395%
TRPV1 activation rate (Human TRPV1 (hTRPV1); test sample 200 μM): 5.49 ± 0.0830%
TRPA1 activation rate (Human TRPA1 (hTRPA1); test sample 1 μM): 0.57 ± 0.0414%
TRPA1 activation rate (Human TRPA1 (hTRPA1); test sample 10 μM): 19.1 ± 1.00%
TRPA1 activation rate (Human TRPA1 (hTRPA1); test sample 25 μM): 41.1 ± 1.51%
TRPA1 activation rate (Human TRPA1 (hTRPA1); test sample 50 μM): 66.4 ± 1.45%
TRPA1 activation rate (Human TRPA1 (hTRPA1); test sample 75 μM): 69.7 ± 1.25%
TRPA1 activation rate, With antagonist (Human TRPA1 (hTRPA1); test sample 100 μM): 3.26 ± 0.102 %
TRPA1 activation rate (Human TRPA1 (hTRPA1); test sample 100 μM): 75.5 ± 1.19%
TRPA1 activation rate, Without antagonist (Human TRPA1 (hTRPA1); test sample 100 μM): 79.4 ± 4.08%
TRPA1 activation rate, With antagonist (Human TRPA1 (hTRPA1); test sample 200 μM): 8.40 ± 0.238 %
TRPA1 activation rate (Human TRPA1 (hTRPA1); test sample 200 μM): 85.7 ± 1.62%
TRPA1 activation rate, Without antagonist (Human TRPA1 (hTRPA1); test sample 200 μM): 82.1 ± 0.918%
TRPA1 activation rates (Human TRPA1 (hTRPA1); test sample 200 μM, Table 10): 85.7 ± 1.62%
Structure (SMILES): O=C(O)c1cc(O)c2c(c1)C(=O)c1cccc(O)c1C2=O [Rhein, rhein]
Activation rate, Mock (Mock cell; test sample 100 μM): 3.49 ± 0.0595%
Activation rate, Mock (Mock cell; test sample 200 μM): 9.65 ± 0.143%
TRPA1 activating action with TRPA1-specific antagonist (in words) (Human TRPA1 (hTRPA1); A-967079): inhibited by the TRPA1-specific antagonist
TRPA1 activating action (in words) (Human TRPA1 (hTRPA1); hTRPA1 stably expressing cell line): activated TRPA1 in concentration dependent manner
